The values that follow come from publication PMC5785531, “Pharmacokinetic parameters explain the therapeutic activity of antimicrobial agents in a silkworm infection model” (Scientific Reports, 2018).

Structures are written as SMILES. ≈ marks a conversion by molar mass, not a printed value.

In experiment [1] the test system is S. aureus MRSA4. Description: MIC against S. aureus MRSA4 in vitro (broth dilution). Format: cell-based. Conditions: Staphylococcus aureus; S. aureus MRSA4 in vitro; SAR series (Fig. 2). The source says:
We synthesized 50 compounds (Fig. 2, Supplementary Table 1) using the Steglich esterification scheme[31] in the presence of a […], 1-ethyl-3-(3-dimethylaminopropyl)-carbodiimide hydrochloride (Fig. 1b). Antimicrobial activities of the compounds were examined by determining the MIC against S. aureus MRSA4 in vitro; therapeutic activities were examined using a systemic infection model of silkworms infected with S. aureus MSSA1. […]
Antimicrobial activity was assessed by determining the MIC by broth dilution assay according to our previous reports[21],[35],[36] as per the Clinical and Laboratory Standards Institute[37]. Briefly, serial dilutions of compound 5, compound 7, and positive controls were prepared in cation-adjusted Mueller-Hinton Broth (MHB, Difco, Franklin Lakes, NJ, USA), 100 µl of which was dispensed into each well of a round-bottomed 96-well plate. The final concentrations in the well ranged from 128 µg/ml to 0.0625 µg/ml. Bacteria were grown at 37 °C overnight on either Luria Bertani (tryptone 10 g/l, yeast extract 5 g/l, NaCl 10 g/l) or Tryptic Soy Broth (TSB, Difco) agar plates or sheep blood agar plates (Eiken Chemical Co. Ltd., Tokyo, Japan). Bacterial inoculum was prepared by direct suspension of the colonies in 0.9% saline, and adjusted to obtain a turbidity equivalent to a 0.5 McFarland standard using a spectrophotometer UV-1280 (Shimadzu Corp., Kyoto, Japan). The suspension was then diluted 1:20 in cation-adjusted MHB (Difco), and 10 µl of it was inoculated into each well of previously prepared 96-well plates containing compounds to obtain approximately 5 × 10^4 colony forming units/well and incubated at 37 °C for 20 h. […] Vancomycin (Wako Pure Chemicals) or norfloxacin (Sigma Aldrich, St Louis, MO, USA) were used as positive controls. Each plate contained a growth control well and a vehicle control well. The MIC was determined as the minimum concentration that inhibited the growth of the bacteria.

Experiment [2] deals with S. aureus MSSA1. Description: Silkworm systemic infection model, therapeutic activity (ED50). In kind it is in vivo, Staphylococcus aureus. Conditions: for ED50: Staphylococcus aureus, silkworms infected with S. aureus MSSA1 (Fig. 2), read-out: ED50. An excerpt: We synthesized 50 compounds (Fig. 2, Supplementary Table 1) using the Steglich esterification scheme[31] in the presence of a […], 1-ethyl-3-(3-dimethylaminopropyl)-carbodiimide hydrochloride (Fig. 1b). Antimicrobial activities of the compounds were examined by determining the MIC against S. aureus MRSA4 in vitro; therapeutic activities were examined using a systemic infection model of silkworms infected with S. aureus MSSA1.
A total of 108,373 compounds from the chemical library of the Drug Discovery Initiative at the University of Tokyo were screened for antibacterial activity against S. aureus strain MRSA4 as previously reported. Those compounds that inhibited the growth of MRSA4 at 100 µM were further evaluated for their therapeutic effects in silkworms infected with S. aureus strain MSSA1 according to previously reported studies[17],[21].

Turning to `O=C(OCc1cc(Cl)cc(Cl)c1)c1ccc([N+](=O)[O-])o1` [compound 1], the MIC in experiment [1] worked out at 12.5 µg/mL (≈ 39.5 µM). Besides, the “survival of the S. aureus-infected silkworms” value in experiment [2] (S. aureus-infected silkworms) is reported as “slightly prolonged the survival”. Besides, the ED50 in experiment [2] is above 95 mg/kg.
In experiment [1], `O=C(OCc1cc(Cl)cc(Cl)c1)c1ccco1` [compound 2] displayed an MIC above 200 µg/mL.
With `O=C(OCc1cccc(Cl)c1)c1ccc([N+](=O)[O-])o1` [compound 3], it took 12.5 µg/mL (≈ 44.4 µM) to inhibit growth in experiment [1] (MIC). The ED50 in experiment [2] was above 87 mg/kg.
In experiment [1], `O=C(OCc1ccccc1)c1ccc([N+](=O)[O-])o1` [compound 4] had an MIC of 12.5 µg/mL (≈ 50.6 µM). Besides, the ED50 in experiment [2] is above 95 mg/kg.
`O=C(OCc1cccc(Cl)c1)c1ccc([N+](=O)[O-])s1` [compound 6] registered an MIC in experiment [1] of 0.5 µg/mL (≈ 1.68 µM). For the same compound, in experiment [2], the ED50 is 65 mg/kg.
`O=C(OCc1ccc2ccccc2c1)c1ccc([N+](=O)[O-])o1` [compound 8] had an MIC in experiment [1] above 200 µg/mL. Moreover, the ED50 in experiment [2] is above 100 mg/kg.
Consider `O=C(OCc1ccc2ccccc2c1)c1ccc([N+](=O)[O-])s1` [compound 9], for which the lowest concentration to inhibit growth in experiment [1] (MIC) was 1.6 µg/mL (≈ 5.11 µM). Moreover, the 50% effective dose (ED50) in experiment [2] was above 105 mg/kg.
In the case of `O=C(NCc1cccc(Cl)c1)c1ccc([N+](=O)[O-])o1` [compound 10], in experiment [1], the MIC amounted to 3.1 µg/mL (≈ 11 µM). For the same compound, the 50% effective dose (ED50) in experiment [2] was above 105 mg/kg.
As for `O=C(NCc1cccc(Cl)c1)c1ccc([N+](=O)[O-])s1` [compound 11], the MIC in experiment [1] worked out at 6.3 µg/mL (≈ 21.2 µM). Also, in experiment [2], the ED50 was above 170 mg/kg.
In the case of `CN(Cc1ccccc1)C(=O)c1ccc([N+](=O)[O-])s1` [compound 14], the minimum inhibitory concentration (MIC) in experiment [1] came out at 50 µg/mL (≈ 181 µM). Also, the ED50 in experiment [2] is above 210 mg/kg.
As for `O=C(COc1cc(Cl)cc(Cl)c1)c1ccc([N+](=O)[O-])o1` [compound 15], in experiment [1], the MIC was 50 µg/mL (≈ 158 µM). The ED50 in experiment [2] is above 105 mg/kg.
`O=C(COc1cc(Cl)cc(Cl)c1)c1ccc([N+](=O)[O-])s1` [compound 16] gave an MIC in experiment [1] of 50 µg/mL (≈ 151 µM). Moreover, the ED50 in experiment [2] was above 220 mg/kg.
Turning to `O=C(OCc1cccc(Br)c1)c1ccc([N+](=O)[O-])o1` [compound 17], in experiment [1], the minimal inhibitory concentration (MIC) came out at 12.5 µg/mL (≈ 38.3 µM). The ED50 in experiment [2] was above 220 mg/kg.
On to `O=C(OCc1cccc(Br)c1)c1ccc([N+](=O)[O-])s1` [compound 18], for which the MIC in experiment [1] was 1.6 µg/mL (≈ 4.68 µM). Further, the median effective dose (ED50) in experiment [2] was 53 mg/kg.
With `O=C(OCc1cccc(F)c1)c1ccc([N+](=O)[O-])s1` [compound 19], in experiment [1], the MIC amounted to 0.4 µg/mL (≈ 1.42 µM). For the same compound, in experiment [2], the ED50 was above 87 mg/kg.
On the same counts, the results for `O=C(OCc1cc(F)cc(Cl)c1)c1ccc([N+](=O)[O-])s1` [compound 20] are 0.4 µg/mL (≈ 1.27 µM) and 17 mg/kg.
As for `O=C(OCc1cc(Br)cc(Br)c1)c1ccc([N+](=O)[O-])s1` [compound 21], 6.3 µg/mL (≈ 15 µM) was the least that counted as inhibitory in experiment [1] (MIC). For the same compound, the ED50 in experiment [2] is above 100 mg/kg.
Regarding `O=C(OCc1c(Br)c(Br)c(Br)c(Br)c1Br)c1ccc([N+](=O)[O-])s1` [compound 22], the minimal inhibitory concentration (MIC) in experiment [1] was above 200 µg/mL.
In experiment [1], `O=Cc1ccc(C(=O)OCc2cc(Cl)cc(Cl)c2)s1` [compound 23] returned a minimum inhibitory concentration (MIC) of 25 µg/mL (≈ 79.3 µM). In addition, the 50% effective dose (ED50) in experiment [2] is above 100 mg/kg.
`O=Cc1ccc(C(=O)OCc2cc(Br)cc(Br)c2)s1` [compound 24] yielded an MIC in experiment [1] of 25 µg/mL (≈ 61.9 µM). In experiment [2], the ED50 was above 100 mg/kg.
In the same order, the values of `O=Cc1ccc(C(=O)OCc2cc(F)cc(Cl)c2)s1` [compound 25] are 50 µg/mL (≈ 167 µM) and above 100 mg/kg.
The compound `O=C(OCc1cc(Cl)cc(Cl)c1)c1ccc(Cl)s1` [compound 26] gave an MIC in experiment [1] above 200 µg/mL.
Turning to `O=C(OCc1cc(Cl)cc(Cl)c1)c1ccc(Br)s1` [compound 27], the MIC in experiment [1] is above 200 µg/mL.
In experiment [1], `O=C(OCc1cc(Cl)cc(Cl)c1)c1cc(Br)c(Br)s1` [compound 28] came in with an MIC above 200 µg/mL. The ED50 in experiment [2] is above 100 mg/kg.
On the same counts, the results for `O=C(OCc1cc(Cl)cc(Cl)c1)c1cc([N+](=O)[O-])n[nH]1` [compound 30] are 1.6 µg/mL (≈ 5.06 µM) and above 210 mg/kg.
On to `Cc1ccc(C(=O)OCc2cc(Cl)cc(Cl)c2)s1` [compound 31], for which, in experiment [1], the MIC is above 200 µg/mL.
Still for that read-out and setting: in the case of `O=C(OCc1cc(Cl)cc(Cl)c1)c1cccc([N+](=O)[O-])n1` [compound 33] it was above 400 µg/mL; in that of `CC(=O)c1ccc(C(=O)OCc2cc(Cl)cc(Cl)c2)s1` [compound 34], above 400 µg/mL; in that of `O=C(OCc1cc(Cl)cc(Cl)c1)c1csc([N+](=O)[O-])c1` [compound 36], above 400 µg/mL.
As for `O=C(OCc1ccc(Cl)cc1Cl)c1ccc([N+](=O)[O-])s1` [compound 39], the MIC in experiment [1] was 3.1 µg/mL (≈ 9.33 µM). For the same compound, the ED50 in experiment [2] was 28 mg/kg.
`CC(OC(=O)c1ccc([N+](=O)[O-])s1)c1ccc(Cl)cc1Cl` (centres unmarked) [compound 40] yielded an MIC in experiment [1] of 1.6 µg/mL (≈ 4.62 µM). Moreover, the ED50 in experiment [2] was above 160 mg/kg.
Turning to `O=C(OCc1c(Cl)cc(Cl)cc1Cl)c1ccc([N+](=O)[O-])s1` [compound 41], it took 1.6 µg/mL (≈ 4.36 µM) to inhibit growth in experiment [1] (MIC). Further, the ED50 in experiment [2] stood at 32 mg/kg.
Take `O=C(OCc1c(Cl)cccc1Cl)c1ccc([N+](=O)[O-])s1` [compound 42]: in experiment [1], inhibition of growth (MIC) required 3.1 µg/mL (≈ 9.33 µM). In addition, in experiment [2], the ED50 was above 180 mg/kg.
In turn, `O=C(OCc1cc(Cl)ccc1Cl)c1ccc([N+](=O)[O-])s1` [compound 43] showed a minimal inhibitory concentration (MIC) in experiment [1] of 3.1 µg/mL (≈ 9.33 µM). The ED50 in experiment [2] is above 180 mg/kg.
In the case of `O=C(OCc1c(F)cccc1Cl)c1ccc([N+](=O)[O-])s1` [compound 44], the lowest concentration to inhibit growth in experiment [1] (MIC) was 6.3 µg/mL (≈ 20 µM). Besides, in experiment [2], the ED50 was above 180 mg/kg.
Turning to `Cc1ccc(Cl)c(COC(=O)c2ccc([N+](=O)[O-])s2)c1F` [compound 45], in experiment [1], the MIC was 1.6 µg/mL (≈ 4.85 µM). In addition, the ED50 in experiment [2] was 82 mg/kg.
In turn, `O=C(OCc1cc(F)cc(F)c1)c1ccc([N+](=O)[O-])s1` [compound 46] returned an MIC in experiment [1] of 3.1 µg/mL (≈ 10.4 µM). For the same compound, the ED50 in experiment [2] worked out at 81 mg/kg.
In experiment [1], `Cc1ccc(COC(=O)c2ccc([N+](=O)[O-])s2)cc1` [compound 47] displayed an MIC of 3.1 µg/mL (≈ 11.2 µM). For the same compound, the ED50 in experiment [2] was 33 mg/kg.
On to `O=C(OCc1ccc(Cl)cc1)c1ccc([N+](=O)[O-])s1` [compound 48], for which 3.1 µg/mL (≈ 10.4 µM) was the least that counted as inhibitory in experiment [1] (MIC). Further, the median effective dose (ED50) in experiment [2] is 58 mg/kg.
In experiment [1], `COc1cc(COC(=O)c2ccc([N+](=O)[O-])s2)cc(OC)c1` [compound 49] yielded an MIC above 400 µg/mL.
Compound `O=C(OCc1cc2c(cc1Cl)OCO2)c1ccc([N+](=O)[O-])s1` [compound 50] returned an MIC in experiment [1] of 3.1 µg/mL (≈ 9.07 µM). The ED50 in experiment [2] is above 240 mg/kg.
`CS(=O)(=O)c1ccc(COC(=O)c2ccc([N+](=O)[O-])s2)cc1` [compound 51] had an MIC in experiment [1] above 400 µg/mL.
For `O=C(NCc1cc(Cl)cc(Cl)c1)c1ccc([N+](=O)[O-])s1` [compound 52], the minimum inhibitory concentration (MIC) in experiment [1] was found to be 25 µg/mL (≈ 75.5 µM). The ED50 in experiment [2] was above 190 mg/kg.
On the same counts, the results for `Cc1cc(C)cc(COC(=O)c2ccc([N+](=O)[O-])s2)c1` [compound 53] are 6.3 µg/mL (≈ 21.6 µM) and above 210 mg/kg.
`CSc1ccc(COC(=O)c2ccc([N+](=O)[O-])s2)cc1` [compound 54]: the MIC in experiment [1] was found to be 6.3 µg/mL (≈ 20.4 µM). For the same compound, the ED50 in experiment [2] was determined as 43 mg/kg.
`CN(C)c1cccc(COC(=O)c2ccc([N+](=O)[O-])s2)c1` [compound 55] returned an MIC in experiment [1] of 25 µg/mL (≈ 81.6 µM).
For the compound `O=C(OCc1ccc(OC(F)(F)F)cc1)c1ccc([N+](=O)[O-])s1` [compound 57], the lowest concentration to inhibit growth in experiment [1] (MIC) was 6.3 µg/mL (≈ 18.1 µM). This MIC lies about 4-fold lower than the previous one.
